Measurements from patent publication US20120259413A1, “DEVICES, COMPOSITIONS AND METHODS UTILIZING EP4 AND EP2 RECEPTOR AGONISTS FOR PREVENTING, REDUCING OR TREATING CAPSULAR CONTRACTURE” (ALLERGAN, INC., priority 2011, published 2012).

How the values were obtained:
[1] = molecular target: T1, hEP2 (Homo sapiens, UniProt P43116); assay: FLIPR Ca2+ signal assay, hEP2 co-expressed with Gqs; format: cell-based; settings: EP2 receptor
T1 construct: expressed in transfected cells
Experimental: (§1) cAMP assay was carried out using AlphaScreen cAMP assay kits (PerkinElmer, Boston, Mass.) following manufacturer instructions. Intracellular Ca^2+ was monitored using a FLIPR Tetra system and assay kits from Molecular Devices following manufacturer instructions. All assays were carried out in HEK-293 cells heterologously and stably expressing each of the eight human recombinant prostanoid receptors. For Ca^2+ signals, hEP2, hEP4, hDP were co-expressed with a chimeric G protein, Gqs, which converts Gs signal to Gq Ca^2+ signal, and hEP3 with a chimeric G protein, Gqi. Each receptor-selective agonist induced Ca^2+ signals with sub-nanomolar or nanomolar EC50 values. Subtype-selective compounds used here are PGE2 for EP1, EP2, EP3 and EP4; BW245C for DP; 17-phenyl PGF2α for FP, carbacyclin for IP and U-46619 for TP.
(§2) Human Recombinant EP1, EP2, EP3, EP4, FP, TP, IP and DP Receptors: Stable Transfectants
(§3) Plasmids encoding the human EP1, EP2, EP3, EP4, FP, TP, IP and DP receptors are prepared by cloning the respective coding sequences into the eukaryotic expression vector pCEP4 (Invitrogen). […] Selection of stable transfectants is achieved with 200 μg ml^−1 hygromycin, the optimal concentration being determined by previous hygromycin kill curve studies. […]

[2] = tested on: cultured human skin fibroblasts; assay: TGF-β1-induced myofibroblast formation (α-SMA Western blot); format: cell-based; settings: 10 or 100 nM with TGF-β1 2 ng/ml, 72 hours
Experimental: EP4 and EP2 Receptor Agonists Inhibit TGF-β1-Induced Myofibroblasts Formation
Adult skin fibroblasts were derived from normal skin of a person, purchased from ATCC(CRL-7346). Cells were cultured in DMEM medium supplemented with 10% fetal bovine serum and 1% streptomycin and penicillin in incubators at 37° C. and 5% CO2. Cells were seeded in 10 cm dishes at 1×10^6 cells/dish. When the cells became 80% confluent, they were cultured in serum-free medium for 48 hrs after washing away residual serum with PBS. Vehicle, Compound I (EP4 receptor agonist), or Compound II (EP2 receptor agonist), together with human recombinant TGF-β1 (2 ng/ml), were added to culture medium at 0, 10 or 100 nM final concentration, respectively. Compound I or 2 was first dissolved in DMSO, the final DMSO concentration was 0.1%. Cell lysates were collected at 72 hours after treatments, respectively. Proteins were quantified and resolved on 4-10% SDS-PAGE. Then the proteins were transferred to membrane by electrophoresis. The membranes were blocked with mouse-anti-alpha smooth muscle actin (α-SMA) antibody, and a second antibody against mouse-IgG conjugated with AP (purchased from Signal Transduction). Shown in FIG. 1A is a representative image of Western Blot myofibroblast marker expression under the treatment of EP4 or EP2 receptor agonists in combination with TGF-β1 in cultured human skin fibroblasts.

[3] = molecular target: T1, hEP2; assay: Radioligand binding assay ([3H]PGE2 competition), EP2 receptor
Experimental: (§4) General Protocol for Radioligand Binding Assays and cAMP assays:
(§5) Radioligand binding studies on plasma membrane fractions prepared from cells** are performed as follows. Cells washed with TME buffer are scraped from the bottom of the flasks and homogenized for 30 sec using a Brinkman PT 10/35 polytron. TME buffer is added as necessary to achieve a 40 ml volume in the centrifuge tubes. TME is comprised of 50 mM TRIS base, 10 mM MgCl2, 1 mM EDTA; pH 7.4 is achieved by adding 1 N HCl. The cell homogenate is centrifuged at 19,000 rpm for 20-25 min at 4° C. using a Beckman Ti-60 or Tt-70 rotor. The pellet is then re-suspended in TME buffer to provide a final protein concentration of 1 mg/ml, as determined by Bio-Rad assay. Radioligand binding assays are performed in a 100 μl or 200 μl volume.
(§6) The binding of [^3H] PGE2 (specific activity 165 Ci/mmol) is determined in duplicate and in at least 3 separate experiments. […] PGE2 and non-specific binding is determined with 10^−5 M unlabelled PGE2. […]
as §3

[4] = molecular target: T2, human recombinant EP2 receptor (HEK-293 cells) (Homo sapiens, UniProt P43116); assay: AlphaScreen cAMP assay, EP2 receptor; format: cell-based; settings: read-out: cAMP enhancement EC50
T2 construct: expressed in transfected cells
Experimental: as §1, §2, §3

[5] = tested on: incisional skin wounds; assay: Incisional skin wound study comparing Compound I and TGF-β3; format: in vivo, rats; settings: for number of neutrophils counted in three sections: 3 days post-surgery, H&E, n=5, vehicle 60.6±30; for macroscopic surface appearance of wound sites / abnormal regions of dense, red, fine parallel fibers in wound gaps: 70 days post-surgery; for abnormal regions of dense, red, fine parallel fibers in wound gaps: Picrosirius red; for widths of the abnormal structured dermis regions versus vehicle: day 14, Masson trichrome; for gap width in-between the normal fibrils versus vehicle / collagen fibrils at wound sites under polarized light: day 14, Picrosirius red; for gap width in-between the normal fibrils versus vehicle: p<0.05; for collagen fibrils at wound sites under polarized light: yellow type I, green type III collagen
Experimental: A similar skin wound study was also performed comparing the effects of Compound I and TGF-β3. In this study, intradermal injections of Compound I at 0.004%, TGF-β3 at 100 ng/200 μl or vehicle were given right before closing the wounds. Afterward, TGF-β3 was injected two more times, on day 1 and 2, and Compound I and vehicle were topically applied twice a day for the duration of the study. The vehicle was PBS with 0.1% BSA and 4 mM HCl in a total volume of 200 μl for injection. Skin wounds were imaged on day 3, 7, 14, 35 and 70.
(§7) The wound tissue was biopsied for histopathology on day 3, 14 and 70. To observe the skin wound, paraffin-embedded wound sections were made. Regular H&E staining was carried out in comparison with Masson trichrome and/or Picosirus red to visualize the collagen fibers. To monitor myofibroblasts in skin wound, the sections were immunohistochemically stained to identify alpha-smooth muscle actin. To assess wound appearance, all the scar photos were mixed together by the end of each study. The scar severity was scored on a scale of 0 to 10, with 0 being invisible, 1 the minimal and 10 the worst. Each scar was divided into 4 regions, separated by suture sites; each quarter was scored independently; the mean of the 4 part scores was recorded as the gross score of each wound.

[6] = tested on: incisional skin wounds; assay: Incisional skin wound study, 14 day pilot, topical treatment; format: in vivo, Sprague-Dawley rats
Experimental: Sprague-Dawley rats weighing 180-200 grams were anesthetized with isoflourane. After shaving, a 2-cm long incision was made, reaching the deep fascia on the back skin of rats under sterile conditions. The wounds were immediately closed with 4-0 sutures. A 14 day pilot study was carried out. The animals were topically treated with vehicle or Compound 1 at 0.004% twice daily. The vehicle contained ethanol 30%, propylene glycol 12%, dipropylene glycol 5%, benzyl alcohol 5%, glycerol 3% and normal saline 45%. The wound was photographed daily; biopsy was performed at 2, 3, 7 and 14 days post-surgery for histopathology and molecular biology analysis.
as §7

[7] = molecular target: T3, hEP4/Gqs (Homo sapiens, UniProt P35408); assay: FLIPR Ca2+ signal assay, hEP4/Gqs; format: cell-based
T3 construct: expressed in transfected cells
Experimental: as §1, §2, §3

[8] = tested on: VEGF; assay: VEGF expression at wound sites (Western blot); format: in vivo, Sprague Dawley rats; settings: wound tissue, transiently at day-7
Experimental: (§8) 2 cm long incisional full thickness skin wounds were made on the back of Sprague Dawley rats. Wounds were treated with vehicle or EP4 agonist (compound I). The wound tissue was biopsied at day-7 or day-14 post-surgery. The samples were homogenized in protein extraction buffer after being frozen in liquid nitrogen. The protein concentrations were measured. Then the samples were loaded into 4-10% SDS-Pages to resolve the proteins. After electrophoresis, the proteins were transferred onto nitrocellular membranes. The membranes were blocked with anti-VEGF, anti-bFGF or anti-beta-actin, respectively. […] It is reported that bFGF prevents scar formation and reduces hypertrophic and burn-induced skin scars. VEGF expression was boosted by 25% transiently at day-7, which may contribute to angiogenesis at wound site and facilitate scar-free healing.

[9] = tested on: bFGF; assay: bFGF expression at wound sites (Western blot); format: in vivo, Sprague Dawley rats; settings: wound tissue, day-7 and day-14
Experimental: as §8

[10] = molecular target: T4, human recombinant EP4 receptor (HEK-293 cells) (Homo sapiens, UniProt P35408); assay: AlphaScreen cAMP assay, EP4 receptor; format: cell-based; settings: read-out: EC50 for increased cAMP production
T4 construct: expressed in transfected cells
Experimental: as §1, §2, §3

[11] = molecular target: T5, human recombinant EP4 receptor (Homo sapiens, UniProt P35408); assay: Radioligand binding assay ([3H]PGE2 competition), EP4 receptor
T5 construct: expressed in transfected cells
Experimental: as §4, §5, §6, §3

[12] = 14 days post-surgery, Masson Trichrome

T1 sequence (P43116 whole entry): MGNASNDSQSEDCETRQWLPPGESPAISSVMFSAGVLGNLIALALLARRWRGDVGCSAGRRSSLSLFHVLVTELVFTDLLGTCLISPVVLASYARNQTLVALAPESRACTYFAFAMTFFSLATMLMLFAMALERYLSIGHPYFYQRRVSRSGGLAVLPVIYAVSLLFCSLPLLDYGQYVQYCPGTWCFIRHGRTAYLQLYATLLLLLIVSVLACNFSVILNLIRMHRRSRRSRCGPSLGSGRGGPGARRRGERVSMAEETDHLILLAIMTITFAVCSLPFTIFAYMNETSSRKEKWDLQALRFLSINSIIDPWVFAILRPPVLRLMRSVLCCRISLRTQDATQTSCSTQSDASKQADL
T2 sequence (P43116 whole entry): as above
T5 sequence (P35408 whole entry): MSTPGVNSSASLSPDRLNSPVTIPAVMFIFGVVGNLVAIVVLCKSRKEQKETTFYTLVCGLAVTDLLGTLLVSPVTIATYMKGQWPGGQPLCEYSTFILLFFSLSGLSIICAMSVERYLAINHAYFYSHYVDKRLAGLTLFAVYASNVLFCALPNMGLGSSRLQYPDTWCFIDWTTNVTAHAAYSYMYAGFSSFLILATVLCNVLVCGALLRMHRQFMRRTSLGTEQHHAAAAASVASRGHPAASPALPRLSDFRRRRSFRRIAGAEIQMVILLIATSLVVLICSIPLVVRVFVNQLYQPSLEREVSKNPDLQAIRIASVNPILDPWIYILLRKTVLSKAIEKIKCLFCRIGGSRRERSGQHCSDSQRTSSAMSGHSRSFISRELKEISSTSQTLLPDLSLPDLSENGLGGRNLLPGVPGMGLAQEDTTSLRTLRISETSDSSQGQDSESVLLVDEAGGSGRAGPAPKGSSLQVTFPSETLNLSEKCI
T4 sequence (P35408 whole entry): as above
T3 sequence (P35408 whole entry): as above

Compound: CCCCC[C@H](O)c1ccc(N2C(=O)CC[C@@H]2CCCc2ccc(C(=O)O)s2)cc1 [Compound II]
- EC50 [1]: 6.7 nM
- TGF-β1-up-regulated expression of α-SMA [2]: dramatically ameliorated
- Ki [3]: 21 nM
- EC50 [4]: 0.19 nM

Compound: TGF-β3: a leading treatment for wounds, reportedly reducing skin scar in both animals and human; comparator
- number of neutrophils counted in three sections [5]: 53.8±17
- macroscopic surface appearance of wound sites [5]: still showed traces of wounds
- abnormal regions of dense, red, fine parallel fibers in wound gaps [5]: largely absent
- widths of the abnormal structured dermis regions versus vehicle ([5]; p<0.01-0.05): significantly smaller
- gap width in-between the normal fibrils versus vehicle [5]: significantly narrower
- collagen fibrils at wound sites under polarized light [5]: some green fibers at the bottom of the wounds
- size of residual scar regions versus vehicle ([5]; day 70, Masson trichrome): remarkably smaller

Compound: CC1(C)C(=O)[C@H](C/C=C\CCCC(=O)O)[C@@H](/C=C/[C@H](O)CCc2sc3ccccc3c2Cl)[C@@H]1O [Compound I]
- epidermal thickness of vehicle-treated skin relative to Compound I treated epidermis ([6]; 7 days post-skin incision): 3 times
- thickness of epidermal layer of treated skin ([6]; 7 days post-skin incision): close to the nearby normal epidermis
- gross skin scar appearance versus vehicle-treated animals ([6]; 14 days post-surgery): smaller and softer skin scar
- scar width at the superficial region [6, 12]: only a tendency to decrease
- scar width in the middle and bottom parts of scars [6, 12]: significantly reduced
- overall size of epidermal defects, vehicle-treated wounds compared with Compound I treated wounds ([6]; day 3): two times larger
- skin wound samples with closed epidermis filled with keratinocytes ([6]; day 3, 0.004% topical twice daily): 80%
- number of myofibroblasts (α-SMA-positive cells) ([6]; day 3 samples, vehicle control 38±6.15): 25.8±7.45 /3 sections
- polymorphonuclear cell infiltration at wound sites ([6]; days 2 and 3): significantly reduced
- EC50 [7]: 0.11 ± 0.05 nM
- boost of VEGF expression [8]: 25%
- enhancement of bFGF expression [9]: up to 60%
- EC50 [10]: 0.25 ± 0.03 nM
- TGF-β1-up-regulated expression of α-SMA [2]: dramatically ameliorated
- number of neutrophils counted in three sections [5]: 31.4±8
- macroscopic surface appearance of wound sites [5]: wound sites were not even detectable
- abnormal regions of dense, red, fine parallel fibers in wound gaps [5]: largely absent
- widths of the abnormal structured dermis regions versus vehicle ([5]; p<0.01-0.05): significantly smaller
- gap width in-between the normal fibrils versus vehicle [5]: significantly narrower
- collagen fibrils at wound sites under polarized light [5]: large yellow-stained collagen bundles almost crossing over the entire wound sites
- size of residual scar regions versus vehicle ([5]; day 70, Masson trichrome): remarkably smaller
- effect on residual scar size compared with TGF-β3 ([5]; day 70, Masson trichrome, p<0.01-0.05): more noticeable than TGF-β3
- Ki [11]: 6.7 ± 0.7 nM
